Like-named read-outs stand apart in the source and are kept apart here.

The values that follow come from patent US12712053B2, “Determining the stability of a substance or substance mixture” (BIONORICA SE, priority 2022, dated 2026).

A short description of data set [1]: in vitro. To be noted: human, HEK295 cells.
Data set [2] has as its system HEK295 cells. To be noted: for Main test: maximum Euclidian distance: NIR, plateau value of curve fit. From the text:
The subject of the investigation was: • HEK295 cells, provided by Microbify, in a concentration of 2.2*10^5 cells/ml in medium, grown confluently, i.e. adherently grown cells that have formed a continuous monolayer/cell layer, in the NIR measuring vessels with transflectance stamp made of stainless steel from BrukerOptics • Use of nutrient medium DMEM (Dulbecco's Modified Eagle's Medium), with high glucose content, HEPES buffer, without phenol red indicator. Medium was purchased ready-to-use from ThermoFisher, catalog number 21063045, and mixed with 10% fetal calf serum (v/v) and 1% penicillin-streptomycin solution (v/v). • Cell culture for 48 hours before measurement directly in the measuring vessel • Addition of several concentrations of ethanol: 0% (control), 3%, 6% (each v/v). […] Before the experiment began, the cells were confluent, i.e. 100% viable • Measurement of cell changes via NIR over a period of […]
The measuring instrument used was a near-infrared spectroscopy device microPHAZIR GP (Thermo Fisher Scientific Inc.) with a wave number range: 6266 cm^−1 to 4172 cm^−1
Data pretreatment of the NIR spectra: No special pretreatment was carried out, spectra were processed directly.
The following calculation parameters were chosen: Euclidean distance
The cells were removed from the incubator and treated with a chemical stress factor (ethanol) at the concentrations mentioned. Three independent replicates were prepared with 0%, 3% and 6% ethanol and in a narrow measured at intervals of time (every 2 minutes) over a total period of 6 hours via NIR.
From the measured spectra, the Euclidean distances were calculated according to the method of the invention, averaged per measurement time and the fitting of kinetic curves (cf. Application example 3; identical procedure). […] The data points are the mean values of 3 independent replicates, each measured 3 times, thus there are 9 measurement points per point. The error bars are the standard error of the mean. Also shown are the determination points for Km (time at which 50% of the plateau value was reached), K90 (time at which 90% of the plateau value was reached), and K95 (time at which 95% of the plateau value was reached).

The viability is a read-out of living cells in per cent, often relative to untreated cells. As to `CCO` [ethanol], in data set [1], the viability at 2.5 % ethanol came to 68%, the viability at 3 % ethanol turned out to be 70.8%, the viability at 5 % ethanol was determined as 65.5% and the viability at 6 % ethanol was found to be 41.4%. In data set [1], the viability at 7.5 % ethanol stood at 22.5% and the viability at 10 % ethanol was 0%. For the same compound, in data set [2] (3% EtOH), the “Km (time at which 50% of the plateau value was reached)” value is ~ 13 min. Further, in data set [2] (3% ethanol (v/v)), the “Main test: maximum Euclidian distance” value worked out at 0.194. The “Km (time at which 50% of the plateau value was reached)” value in data set [2] (6% EtOH) was ~ 11 min. In addition, in data set [2] (6% ethanol (v/v)), the “Main test: maximum Euclidian distance” value was 0.272.
